Results taken from ChEMBL document CHEMBL4418481, “Chemical agents for the prevention of inhibition or tumor metastasis” (2013).
Activity calls are given as the source filed them. The calls are words filed in the database; no cut-off is given here.

The compounds below were run against Protein S100-A4 (Homo sapiens, UniProt P26447) (assay: Binding affinity to S100A4 (unknown origin) assessed as inhibition of S100A4/myosin-2A interaction using fluorescein-tagged myosin-2A peptide (1908 to 1923 residues) by fluorescence polarization assay). Conditions: not given.
Sequence of Protein S100-A4 (P26447 whole entry, the tested form may be a part): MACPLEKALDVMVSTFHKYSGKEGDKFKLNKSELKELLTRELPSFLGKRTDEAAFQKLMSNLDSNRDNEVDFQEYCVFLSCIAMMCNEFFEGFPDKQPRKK

Compared with `O=C1C(NCCF)=C(Cl)C(=O)c2ncccc21`, `O=C1C(Cl)=C(Cl)C(=O)c2ncccc21` is 2-fold lower in EC50: 28.7 µM for the first, 14 µM for the second.

`O=C1C(=O)c2cc([N+](=O)[O-])ccc2-c2ccccc21` and `Nc1ccc2c(c1)C(=O)C(=O)c1ccccc1-2` cannot be ordered by EC50: 0.5 to 2 µM for the first, 1.6 µM for the second.

`O=C1C(NCCCN2CCCCC2)=CC(=O)c2ncccc21` and `CCCCN(CCCC)CCCNC1=CC(=O)c2ncccc2C1=O` are within 1.5-fold of each other in EC50: 85 µM for the first, 70 µM for the second.

Compared with `Cc1ccc2c(n1)C(=O)C=CC2=O`, `O=C1C=CC(=O)c2ncccc21` is 1.9-fold higher in EC50: 8.6 µM for the first, 16 µM for the second.

Going from `O=C1CC(Cl)C(=O)c2ccccc21` (centres undefined) to `O=C1c2ccccc2C(=O)C(Cl)C1Cl` (centres undefined), the EC50 falls from 67.5 µM to 27 µM (2.5-fold).

`O=C(O)CCSC1=CC(=O)c2ccccc2C1=O` and `O=C1C=C(SCCO)C(=O)c2ccccc21` are within 1.5-fold of each other in EC50: 21 µM for the first, 16 µM for the second.

`NC1=C(Br)C(=O)c2ncccc2C1=O` and `NC1=C(Cl)C(=O)c2ncccc2C1=O` are within 1.5-fold of each other in EC50: 16 µM for the first, 13.5 µM for the second.

First: O=C1C=C(NCCc2cc(Br)c(O)c(Br)c2)C(=O)c2ncccc21
Second: CC(=O)NC1=CC(=O)c2cccnc2C1=O
The EC50 of the first is 5.1-fold higher: 92 µM for the first, 18 µM for the second. The second is the more potent here.

`CC1=C(SCC(=O)O)C(=O)c2ccccc2C1=O` and `CCSC1=C(C)C(=O)c2ccccc2C1=O` are within 1.5-fold of each other in EC50: 39 µM for the first, 51 µM for the second.

`CC(=O)N(C1=C(Cl)C(=O)c2ccccc2C1=O)c1ccc(F)cc1` and `CC(=O)NC1=C(Sc2ccc(Cl)cc2)C(=O)c2ccccc2C1=O` are within 1.5-fold of each other in EC50: 96 µM for the first, 94 µM for the second.

Going from `CSC1=CC(=O)c2ccccc2C1=O` to `CCSC1=CC(=O)c2ccccc2C1=O`, the EC50 falls from 92.5 µM to 22 µM (4.2-fold).

Going from `O=C1C2=C(SCCS2)C(=O)c2ccccc21` to `CSC1=C(C)C(=O)c2ccccc2C1=O`, the EC50 rises from 2.2 µM to 64 µM (29-fold).

`CC(=O)c1ccc2c(c1)-c1ccccc1C(=O)C2=O` and `O=C1C(=O)c2cc(Cl)ccc2-c2ccccc21` are within 1.5-fold of each other in EC50: 2.2 µM for the first, 1.8 µM for the second.

First: O=C1C(=O)c2cc(Br)cc([N+](=O)[O-])c2-c2ccc(Br)cc21
Second: O=C1C(=O)c2cc(Br)ccc2-c2ccc(Br)cc21
The EC50 of the first is 2.3-fold lower: 8.3 µM for the first, 19 µM for the second.

Compared with `O=C1C(=O)c2cccc([N+](=O)[O-])c2-c2c1cccc2[N+](=O)[O-]`, `O=C1C(=O)c2cccc([N+](=O)[O-])c2-c2ccccc21` is 6.4-fold lower in EC50: 16 µM for the first, 2.5 µM for the second.

First: CC1=C(SCCO)C(=O)c2ccccc2C1=O
Second: CC1=C(SCc2ccccc2)C(=O)c2ccccc2C1=O
The EC50 of the first is 1.5-fold lower: 62 µM for the first, 95 µM for the second. The first is the more potent here.

Going from `O=C1C(=O)c2ccccc2-c2ccccc21` [9,10-PHENANTHRENEQUINONE] to `O=C1C(=C(Br)Br)c2ccccc2-c2ccccc21`, the EC50 rises from 3.8 µM to 35 µM (9.2-fold).

Compared with `O=C1NC(=S)S/C1=C/c1cc([N+](=O)[O-])ccc1Sc1ccc(C(F)(F)F)cn1`, `O=C1C(=O)c2cc([N+](=O)[O-])ccc2-c2ccc([N+](=O)[O-])cc21` is 2.6-fold lower in EC50: 46 µM for the first, 18 µM for the second.

Going from `COC1=C(N)C(=O)c2ncccc2C1=O` to `NC1=CC(=O)c2ncccc2C1=O`, the EC50 rises from 12 µM to 34 µM (2.8-fold).

Compared with `O=C1C(=C2C=Nc3ccccc32)Nc2ccc(Br)cc21`, `O=C1c2ccccc2-c2ccccc2C1(Cl)Cl` is lower in EC50: 31 µM for the first, 2.5 to 4.8 µM for the second.

Compared with `Nc1c2c(=O)[nH]c(=O)c2c(N)c2c(=O)c3ccccc3c(=O)c12`, `Cc1ccc(C(=O)OC2=CC(=O)c3ccccc3C2=O)cc1` is 1.8-fold higher in EC50: 36 µM for the first, 64 µM for the second.

`O=C1C(=O)c2cc(Cl)ccc2-c2ccc(Cl)cc21` and `Cc1ccc(S(=O)(=O)N/N=C2\C(=O)c3ccccc3-c3ccccc32)cc1` cannot be ordered by EC50: 8.1 to 8.7 µM for the first, 8.4 µM for the second.

Compared with `CCCCSC1=CC(=O)c2ccccc2C1=O`, `CC(=O)NC1=C(Cl)C(=O)c2ncccc2C1=O` is 4.4-fold lower in EC50: 40 µM for the first, 9 µM for the second.

What follows are compounds tested on MDA-MB-231 (assay: Growth inhibition of human MDA-MB-231 cells incubated for 24 hrs by MTT assay). Conditions: not given.
Format: functional

In the case of `O=C(O)C[C@@H]1OCC=C2CN3CC[C@]45C6=CC(=O)C(=O)C([N+](=O)[O-])=C6N[C@H]4[C@H]1[C@H]2C[C@H]35`, the GI50 is reported as “inactive”.

Same assay, conditions: MDA-MB-231, 24 h

`O=C1NC(=S)S/C1=C/c1cc([N+](=O)[O-])ccc1Sc1ccc(C(F)(F)F)cn1` gave a GI50 of 190 µM.

What follows are compounds tested on MDA-MB-231 (assay: Induction of cell death in human MDA-MB-231 cells at 50 uM incubated for 24 hrs by MTT assay relative to untreated control). Conditions: not given.
Format: functional

In the case of `Cc1oc(-c2ccc(Cl)cc2)cc1C(=O)/C(C#N)=C/c1ccccc1`, the Activity is reported as 100%.
